The test system of this experiment is cell imaging, HER kinase expression, mean fluorescence. Kind of experiment: HER kinase expression suppression, imaging readout – mean fluorescence, total cell number, dose response (AID 814).
Setting [1] is: measured here: total cell number (cytotoxicity).

The source made the active and inactive calls. The rule behind the calls is not given here.

Usually EC50 stands for the concentration that produces a half-maximal response. Take `Cc1nc(NC(=O)c2ccco2)sc1C(=O)Nc1ccc(Br)cc1`: the concentration for a half-maximal effect (EC50) is 8.41 µM. Besides, the half-maximal effective concentration (EC50) under setting [1] was above 10 µM.

`Nc1nnnn1/N=C/C(Br)=C/c1ccccc1`: the concentration giving a half-maximal response (EC50) was 4.69 µM. Further, under setting [1], the EC50 was above 10 µM.

With `O=S1(=O)C=C(Sc2nnc(-c3ccccc3)o2)c2ccccc21`, the 50% effective concentration (EC50) is 8.72 µM. This molecule displayed an EC50 under setting [1] above 10 µM.

Regarding `O=C(CSc1nc2cc(Cl)ccc2s1)c1ccco1`, the EC50 was > 10 µM (inactive). Under setting [1], this molecule returned an EC50 above 10 µM.

For `CSC1=N/C(=C\C=C\c2cccs2)C(=O)S1`, the EC50 was > 10 µM (inactive). Further, under setting [1], the concentration giving a half-maximal response (EC50) was above 10 µM.

Take `O=S1(=O)C=C(Sc2nc3cc(Cl)ccc3o2)c2ccccc21`: the EC50 was > 10 µM (inactive). Moreover, the EC50 under setting [1] was above 10 µM.

As to `O=S(=O)(C/C(=C/CO)S(=O)(=O)c1ccccc1)c1ccccc1`, the EC50 is > 10 µM (inactive). In addition, the EC50 under setting [1] was above 10 µM.

Regarding `CS(=O)(=O)c1nc(-c2cccs2)cc(C(F)(F)F)n1`, the EC50 was > 10 µM (inactive). The same molecule gave an EC50 under setting [1] above 10 µM.

Consider `Cn1c(C(C#N)C(=O)c2ccco2)nc2ccccc21` (stereo not drawn), for which the EC50 is 8.31 µM. Moreover, the EC50 under setting [1] was above 10 µM.

Turning to `CCCn1c(NC(=O)c2ccco2)nc2ccccc21`, the concentration giving a half-maximal response (EC50) was 9.35 µM. Under setting [1], the EC50 is above 10 µM.

For `Cc1nn2c(-c3ccco3)nnc2c2ccccc12`, the EC50 was 8.3 µM. Also, under setting [1], the EC50 is above 10 µM.

With `O=S(=O)(CC(CN1CCCC1)N1CCCC1)c1ccc2ccccc2c1` (stereo not drawn), the EC50 is 7.75 µM. Under setting [1], the EC50 is above 10 µM.

Regarding `COc1ccc(C(=O)C(CN2CCCC2)c2ccccc2)cc1` (stereo not drawn), the EC50 was 8.27 µM. For the same molecule, under setting [1], the concentration giving a half-maximal response (EC50) is above 10 µM.

Turning to `O=S1(=O)C=C(Sc2nc3ccccc3s2)c2ccccc21`, the concentration giving a half-maximal response (EC50) is 5.41 µM. This molecule also returned an EC50 under setting [1] of 7.61 µM.

On to `CCCCS(=O)(=O)/C=C\C=C/S(=O)(=O)CCCC`, for which the concentration giving a half-maximal response (EC50) is 8.14 µM. Also, under setting [1], the EC50 turned out to be 7.52 µM.

For `Cc1nc2nc(-c3ccco3)nn2c(C)c1Cl`, the EC50 is 9.52 µM. Moreover, the EC50 under setting [1] is above 10 µM.

On to `Cc1ccc(CNC(=O)c2cc3c(-c4ccc(Cl)cc4)nn(C)c3s2)o1`, for which the EC50 was > 10 µM (inactive). Moreover, the EC50 under setting [1] was above 10 µM.

Regarding `CN(C)CC(C(=O)c1ccccc1)c1ccccc1` (stereo not drawn), the concentration for a half-maximal effect (EC50) was 6.95 µM. Under setting [1], this molecule showed an EC50 above 10 µM.

On to `CS(=O)(=O)c1nc(-c2ccco2)cc(C(F)(F)F)n1`, for which the EC50 is > 10 µM (inactive). The molecule also returned an EC50 under setting [1] above 10 µM.

On to `CS(=O)(=O)c1nc(-c2ccccc2)cc(C(F)(F)F)n1`, for which the EC50 was > 10 µM (inactive). The EC50 under setting [1] is above 10 µM.

For `Cc1ccc(-c2csc3ncnc(Sc4nnc(CN5CCCCCC5=O)o4)c23)cc1`, the EC50 was 8.06 µM. Also, the EC50 under setting [1] was above 10 µM.

In the case of `CC(=O)c1sc2nc(-c3cccs3)cc(C(F)(F)F)c2c1N`, the EC50 was > 10 µM (inactive). Besides, the half-maximal effective concentration (EC50) under setting [1] is above 10 µM.

With `CCN1/C(=C/C(=O)c2ccco2)Sc2ccccc21`, the EC50 is 8.32 µM. In addition, the EC50 under setting [1] was above 10 µM.

As to `COC(=O)c1sccc1NC(=O)c1ccc(Cl)s1`, the EC50 is 6.49 µM. This molecule also had an EC50 under setting [1] above 10 µM.

The record behind these values is PubChem BioAssay AID814 (SRMLSC, 2007).
